The results in this text go back to ChEMBL document CHEMBL4819028, “Structures and Biosynthetic Pathway of Coprisamides C and D, 2-Alkenylcinnamic Acid-Containing Peptides from the Gut Bacterium of the Carrion Beetle Silpha perforata” (J Nat Prod, 2021).

In brackets after ≈: the same amount, converted by molar mass. Activity calls are given as the source filed them. No cut-off for these calls is given here.

For data set [1], the system named is Mycobacterium tuberculosis. Put plainly: Antitubercular activity against Mycobacterium tuberculosis mc2 6230 assessed as inhibition of bacterial growth incubated for 5 days by REMA. Particulars: mc2 6230, 120 h, time 5 day. Format: functional.
The test system of the next data set is Trichophyton rubrum. Put plainly: […] activity against Trichophyton rubrum. It is filed as functional, organism-based.
The subject of another data set is Staphylococcus aureus. Put plainly: Antibacterial activity against Staphylococcus aureus. It is filed as functional, organism-based.
A further data set deals with Salmonella enterica. Put plainly: Antibacterial activity against Salmonella enterica. It is filed as functional, organism-based.
The test system of another data set is Klebsiella pneumoniae. Put plainly: Antibacterial activity against Klebsiella pneumoniae. It is filed as functional, organism-based.
Data set [2] in a line: Cytotoxicity against mouse Hepa1c1c7 cells at higher concentration. It is filed as cell-based.
The subject of data set [3] is Trichophyton mentagrophytes. Put plainly: […] activity against Trichophyton mentagrophytes. Format: functional, organism-based.
A further data set has as its system Candida albicans. Put plainly: […] activity against Candida albicans. It is filed as functional, organism-based.
In a further data set the test system is Enterococcus faecalis. Put plainly: Antibacterial activity against Enterococcus faecalis. It is filed as functional, organism-based.
Data set [4] concerns the target NAD(P)H dehydrogenase [quinone] 1 (Mus musculus) (UniProt Q64669). Put plainly: Induction of quinone reductase activity in mouse Hepa1c1c7 cells at 10 uM incubated for 24 hrs by MTT based assay. It is filed as cell-based. Particulars: filed as activator. A general note: Tetrazolium assays rely on reduction of a dye to a coloured formazan, in cell work by metabolically active cells.

A further data set relates to Escherichia coli. Put plainly: Antibacterial activity against Escherichia coli. It is filed as functional, organism-based.
In the next data set the test system is Aspergillus fumigatus. Put plainly: […] activity against Aspergillus fumigatus. It is filed as functional, organism-based.
For another data set, the system named is Enterococcus faecium. Put plainly: Antibacterial activity against Enterococcus faecium. Format: functional, organism-based.

Chain of NAD(P)H dehydrogenase [quinone] 1 (Mus musculus) (Q64669 whole entry): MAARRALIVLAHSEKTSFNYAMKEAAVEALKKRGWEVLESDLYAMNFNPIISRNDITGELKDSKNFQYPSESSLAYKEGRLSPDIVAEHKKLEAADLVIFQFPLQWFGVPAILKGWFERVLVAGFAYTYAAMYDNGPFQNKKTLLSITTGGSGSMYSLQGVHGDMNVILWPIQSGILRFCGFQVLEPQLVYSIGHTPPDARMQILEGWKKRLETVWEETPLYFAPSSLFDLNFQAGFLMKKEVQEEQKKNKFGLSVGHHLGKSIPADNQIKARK

Usually MIC50 stands for the lowest concentration that inhibits either 50% of growth or 50% of the strains tested, depending on the study. With `NNC(=O)c1ccncc1` [ISONIAZID], in [1], the MIC50 came out at 0.03 µg/mL (≈ 0.219 µM).
On the same count and under the same terms, as for `CC[C@@H](CO)NCCN[C@@H](CC)CO` [ETHAMBUTOL], the figure is 0.83 µg/mL (≈ 4.06 µM).
For the molecule `CC(C)C/C=C/C=C/c1ccccc1/C=C/C(=O)N[C@H](C)C(=O)N[C@@H]1COC(=O)[C@H]([C@H](C)C(=O)O)NC(=O)[C@H](CNC(=O)[C@@H](N)C(C)C)NC(=O)[C@H](C(C)C)NC(=O)[C@@H](CC(C)C)NC1=O`, the result (with Trichophyton rubrum; in the data set with Staphylococcus aureus; with Salmonella enterica; in the data set with Klebsiella pneumoniae; in [3]; in the data set on Candida albicans) was inactive. Besides, the outcome in the data set with Enterococcus faecalis, with Escherichia coli, in the data set on Aspergillus fumigatus and in the data set with Enterococcus faecium was inactive. In addition, in data set [2], the Activity entry is on record as “Toxic”. Besides, the fold change (FC) in data set [4] was 2.3.
`CC(C)/C=C/C/C=C\c1ccccc1/C=C/C(=O)N[C@H](C)C(=O)N[C@@H]1COC(=O)[C@H]([C@H](C)C(=O)O)NC(=O)[C@H](CNC(=O)[C@@H](N)C(C)C)NC(=O)[C@H](C(C)C)NC(=O)[C@@H](CC(C)C)NC1=O`: the result (in the data set with Trichophyton rubrum; in the data set on Staphylococcus aureus; in the data set with Salmonella enterica; in the data set on Klebsiella pneumoniae; in [3]; with Candida albicans) was inactive. The result in the data set on Enterococcus faecalis, in the data set with Escherichia coli, in the data set with Aspergillus fumigatus and in the data set with Enterococcus faecium was inactive. Besides, in [1], the MIC50 was determined as 82.8 µg/mL (≈ 89.7 µM). Further, in data set [2], the Activity entry is on record as “Toxic”. This molecule registered a fold change (FC) in [4] of 2.4.
Consider `C/C=C/C=C/C=C/c1ccccc1/C=C/C(=O)NC(C)C(=O)N[C@@H]1COC(=O)[C@H]([C@H](C)C(=O)O)NC(=O)[C@H](CNC(=O)C(N)C(C)C)NC(=O)[C@H](C(C)C)NC(=O)[C@@H](CC(C)C)NC1=O` (some centres undefined), for which the fold change (FC) in data set [4] amounted to 2.1.
Still for that read-out and setting: in the case of `C/C=C/C=C/C/C=C\c1ccccc1/C=C/C(=O)NC(C)C(=O)N[C@@H]1COC(=O)[C@H]([C@H](C)C(=O)O)NC(=O)[C@H](CNC(=O)C(N)C(C)C)NC(=O)[C@H](C(C)C)NC(=O)[C@@H](CC(C)C)NC1=O` (some centres undefined) it was 2.6.
